Reference: patent US20110224221A1, “HEMATOPOIETIC PROTECTION AGAINST IONIZING RADIATION USING SELECTIVE CYCLIN-DEPENDENT KINASE 4/6 INHIBITORS” (priority 2008, published 2011)
Entries after “also recorded” stand apart in the source; their conditions may differ.

How the values were obtained:
[1] = tested on: hematopoietic stem and progenitor cells; assay: HSPC proliferation in vivo (BrdU incorporation, Ki67) by flow cytometry; parameters: species or system mice
Experimental: BrdU Incorporation in vivo: Mice were treated once daily for 2 days with PD 0332991 at 150 mg/kg. 5-Bromo-2-deoxyuridine (BrdU) was given 24 hours after the initiation of PD 0332991 and continued until the animals were sacrificed for analysis: 24 hours of BrdU by intraperitoneal (i.p.) injection every 6 hours at a dose of 1 mg.
For HSPC proliferation experiments, mice received daily oral gavage with PD0332991 for 2 days with 1 mg BrdU intraperitoneal injection every 6 hours for 24 hours prior to sacrifice. BM-MNC harvest and immunophenotyping was performed using RBC lysis, biotin-conjugated Lin-panel incubation (Invitrogen Corporation, Carlsbad, Calif., United States of America), paramagnetic bead-conjugated straptavidin (Miltinyi Biotec, Bergisch Gladbach, Germany) incubation, and magnetic depletion using an AutoMACS (Miltinyi Biotec, Bergisch Gladbach, Germany). At least 2×10^6 Lin-depleted cells per mouse were incubated with fluorescently labeled antibodies against cell surface antigens used to identify hematopoietic progenitor subpopulations as previously described (see Passegue et al., J. Exp. Med., 202, 1599-1611 (2005); and Kiel et al., Cell, 121, 1109-1121 (2005): CD34-FITC, CD16/32-PacificBlue, IL7Ra-PE-Cy5, and cKit-APC-Alexa750 from eBiosciences, Inc. (San Diego, Calif., United States of America); Sca1-PE-Cy7, CD150-PE-Cy5, and CD48-PacificBlue from BioLegend (San Diego, Calif., United States of America); and Aqua Live/Dead viability dye (Invitrogen Corporation, Carlsbad, Calif., United States of America). Streptavidin-PE-TexasRed (Invitrogen Corporation, Carlsbad, Calif., United States of America) was used to confirm efficiency of lineage-depletion. After cell surface staining, cells were fixed, permeabilized, and stained with antibodies against Ki67-FITC, BrdU-APC, and caspase3-PE (BD Biosciences Pharmingen, San Diego, Calif., United States of America).
In all experiments, gating based on isotype controls was used as appropriate. Flow cytometry was performed using a CyAn ADP (Dako, Glostrup, Denmark) and analyzed with FlowJo software (Tree Star, Ashland, Oreg., United States of Ameria). For each bone marrow sample, a minimum of 200,000 cells were analyzed. For cell culture samples, a minimum of 20,000 cells were analyzed.
PD0332991, which is orally bioavailable, was administered to adult wild-type C57Bl/6 mice by oral gavage. […] See Passeque et al., J. Exp. Med., 202, 1599-1611 (2005); Wilson et al., Cell, 125, 1118-1129 (2008); and Kiel et al., Nature, 449, 238-U210 (2007).
2BrIC was solubilized for oral gavage using formulation #6 from the Hot Rod formulation kit (Pharmatek, Inc. San Diego, Calif., United States of America) and given by oral gavage 2 hours prior to BrdU injection. Also, an additional dose was given at the time of BrdU injection to sustain the G1 arrest in bone marrow.

tHDF (HS68) cells = assay: Clonogenic assay after IR, tHDF (HS68); format: cell-based, human; settings: PD0332991 100 nM, 2BrIC 2 μM, CINK4 6 μM, IR 0-9 Gy
Experimental: FIG. 6A is a set of micrograph images of crystal violet stained cell cultures of cyclin-dependent kinase 4/6 (CDK4/6)-dependent cells (HS68) plated at different cell/well ratios and treated with either dimethyl sulfoxide (DMSO) as a negative control or with the selective CDK4/6 inhibitor 2-bromo-12,13-dihydro-5H-indolo[2,3-a]pyrrolo[3,4]carbazole-5,6-dione (2BrIC) at 2 μM for 24 hours prior to exposure to ionizing radiation at 0, 1.5, 3, 6, or 9 gray (Gy), as indicated.
Data plotted is the area/cell ratio of PD0332991 treated cells to dimethyl sulfoxide (DMSO) treated cells. Error bars show standard error of the mean.
FIG. 9A is a set of micrograph images of cell cultures of cyclin-dependent kinase 4/6 (CDK4/6)-dependent cells (HS68) plated at different cell/well ratios and pretreated with either dimethyl sulfoxide (DMSO) as a control or with the nonselective CDK4/6 inhibitor trans-4-[[6-ethylamino)-2-[[1-phenylmethyl)-1H-indol-5-yl]amino]-4-pyrimidinyl]amino]]-cyclohexanol (CINK4) at 6 μM for 24 hours prior to exposure to ionizing radiation at 0, 1.5, 3, 6, or 9 gray (Gy), as indicated. The plates were stained with crystal violet to visualize cell colonies.
Clonogenic Assay: The clonogenic assay was performed as previously described (see Franken et al., Nature protocols, 1, 2315-1319 (2006)) with cells plated in a six-well plate at least 6 hours prior to treatment with CDK inhibitor for 24 hours, with 6 Gy IR occurring 12 hours after initiation of CDK inhibitor exposure. Cells were grown for 16 days, washed, fixed, and stained with crystal violet. Plates were then imaged using an Odyssey infrared scanner (Li-Cor Biosciences, Lincoln, Nebr., United States of America) and quantified using the accompanying software.

tHDF cells = assay: Western blot of DNA damage response marker phospho-P53 after IR; format: cell-based, human; settings: treatment prior to IR; PD0332991 100 nM for 24 hours, 6 Gy
Experimental: FIG. 4A are images of Western blots of a DNA damage response marker (phospho-P53) in telomerized human diploid fibroblast (tHDF) cell lysates 3 hours after or 6 hours after a 6 gray (Gy) dose of ionizing radiation (IR) or following no IR, as indicated above the blot images. […] Actin western blot is shown as a loading control.
FIG. 4B is a bar graph showing the normalized phospho-P53 intensity in the telomerized human diploid fibroblast (tHDF) cells described in FIG. 4A.
Western Blots: Western blots were performed on cell lysates in NP-40 lysis buffer with protease inhibitors (Roche, Basel, Switzerland) and phosphatase inhibitors (Calbiochem, San Diego, Calif., United States of America) as previously described (see Ramsey et al., Cancer Res., 67, 4732-4741), using anti-p53-phospho-Ser15 (Cell Signaling Technology, Beverly, Mass., United States of America), Bax, p21, and actin-HRP (Santa Cruz Biotechnology, Inc., Santa Cruz, Calif., United States of America).

[2] = among oligopotent progenitors, 48 hours treatment

In the case of `O=C1NC(=O)c2c1c1c3ccccc3[nH]c1c1[nH]c3cc(Br)ccc3c21` [Compound 2BrIC, 2-bromo-12,13-dihydro-5H-indolo[2,3-a]pyrrolo[3,4]-carbazole-5,6-dione], the “incorporation of BrdU into MPP” value ([1]; Lin−Kit+Sca1+ cells, oral gavage 2 hours prior to and at BrdU injection, relative to formulation alone) is reported as “inhibited the incorporation of BrdU; also recorded: clearly reducing proliferation of the MPP”, the “clonogenic cell survival after IR (area/cell ratio relative to DMSO)” value (tHDF (HS68) cells) is reported as “enhanced clonogenic cell survival” and the “DNA damage response (phospho-P53) after IR” value (tHDF cells) is reported as “attenuated”.
For `CC(=O)c1c(C)c2cnc(Nc3ccc(N4CCNCC4)cn3)nc2n(C2CCCC2)c1=O` [PD0332991, 6-acetyl-8-cyclopentyl-5-methyl-2-(5-piperazin-1-yl-pyridin-2-ylamino)-8H-pyrido-[2,3-d]-pyrimidin-7-one], the “proliferation in early HSPC (BrdU incorporation, Ki67)” value ([1]; 48 hours treatment) was “clearly reduces proliferation”, the “proliferation of Lin−Kit−Sca1− and Lin+ cells” value ([1]; 48 hours treatment) was “no change in proliferation” and the “frequency of HSC doubly positive for expression of Ki67 and BrdU” value ([1]; HSC (Lin−Kit+Sca1+CD48−CD150+), 48 hours treatment, oral gavage, C57Bl/6) was “significantly decreased”. For the same molecule, the “proliferation of oligopotent progenitors” value ([1]; Lin−Kit+Sca1−, 48 hours treatment) was “modest inhibition of proliferation”, the “proliferation of multipotent progenitor cell compartment” value ([1]; MPP (Lin−Kit+Sca1+CD48−CD150−), 48 hours treatment) was “more pronounced inhibition of proliferation” and the “proliferation of CMP and CLP” value [1, 2] was “strongest effects”. For the same molecule, the “proliferation of GMP and MEP” value [1, 2] was “weaker effects”, the “clonogenic cell survival after IR (area/cell ratio relative to DMSO)” value (tHDF (HS68) cells) was “enhanced clonogenic cell survival” and the “DNA damage response (phospho-P53) after IR” value (tHDF cells) was “attenuated”.
